In ChEMBL document CHEMBL1201862, “PubChem BioAssay data set” (2004):
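Where inhibition never reached the appropriate level, the endpoint shown equals the highest concentration tested. Otherwise, values were interpolated linearly from a five-concentration, 48-hour dose response in 96-well plates. GI50 = concentration required for 50% inhibition of growth.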 Activity calls are given as the source filed them. Cut-off read from the data, not from the text of the source: active = GI50 up to about 1.1 µM and inactive = higher.

Experiments:
Test in all cases: NCI anticancer screen, dose series, 48 h
[1] = test system: CAKI-1
[2] = test system: CCRF-CEM
[3] = test system: DU-145
[4] = test system: EKVX
[5] = test system: HL-60
[6] = test system: HOP-92
[7] = test system: HT-29
[8] = test system: LOX IMVI
[9] = test system: M14
[10] = test system: MDA-MB-435
[11] = test system: Malme-3M
[12] = test system: NCI-H23
[13] = test system: NCI-H460
[14] = test system: OVCAR-4
[15] = test system: RXF 393
[16] = test system: SF-539
[17] = test system: SK-MEL-2
[18] = test system: SNB-75
[19] = test system: OVCAR-3
[20] = test system: SF-295

Measured: GI50

C[C@H](CCC(=O)O)[C@H]1CC[C@H]2[C@@H]3[C@H](O)C[C@@H]4C[C@H](O)CC[C@]4(C)[C@H]3CC[C@]12C [CHENODIOL]
inactive: [1] 37.2 µM | [2] 33.1 µM | [3] 43.2 µM | [4] 33.8 µM | [5] 34 µM | [6] 30.3 µM | [7] 24.3 µM | [8] 32.5 µM | [9] 27.7 µM | [10] 37 µM | [11] 32.2 µM | [12] 27.9 µM | [13] 27.1 µM | [14] 51.9 µM | [15] 44.7 µM | [16] 24.7 µM | [17] 20 µM | [18] 19.6 µM

CSc1nc(-c2ccccc2)nc(C(C#N)C#N)n1
inactive: [1] > 100 µM | [2] > 100 µM | [3] > 100 µM | [4] > 100 µM | [5] > 100 µM | [6] > 100 µM | [7] > 100 µM | [8] > 100 µM | [9] > 100 µM | [10] > 100 µM | [11] > 100 µM | [12] > 100 µM | [19] > 100 µM | [14] > 100 µM | [15] > 100 µM | [20] > 100 µM | [16] > 100 µM | [17] > 100 µM | [18] > 100 µM

CCOC(=O)c1cc(C2=C(S)N(CC(C)CC)CC2)c(C(=O)CC)[nH]1 (centres undefined)
inactive: [1] 12.9 µM | [2] 4.28 µM | [3] 16.6 µM | [4] 17.5 µM | [5] 5.36 µM | [6] 19.7 µM | [7] 22.4 µM | [8] 17.4 µM | [10] 15.5 µM | [11] 11.1 µM | [12] 19.5 µM | [13] 20.6 µM | [14] 14.5 µM | [15] 20.7 µM | [20] 18.2 µM | [16] 12 µM | [17] 22.1 µM | [18] 19.7 µM

O=C(c1ccccc1)c1ccc2[nH]c(-c3c(Cl)c(Cl)c(Cl)c(Cl)c3-c3nnc(-c4ccccc4)o3)nc2c1
inactive: [1] 40.4 µM | [2] 46.3 µM | [3] 70.5 µM | [4] 54.1 µM | [5] 11.5 µM | [6] 35.7 µM | [7] 31.3 µM | [8] 39.4 µM | [9] 28.2 µM | [10] 3.51 µM | [11] 17.9 µM | [12] 31.7 µM | [19] 13.8 µM | [14] 20.7 µM | [15] 5.47 µM | [20] 14.1 µM | [16] 19.4 µM | [17] 20 µM | [18] 8.81 µM
